Like-named read-outs stand apart in the source and are kept apart here.
Assays:
H3N2 = test system: H3N2; parameters: method as in PMID 20215135; conditions: read-out: inhibitory concentrations (IC50) against H3N2; cited from earlier work
[1] = Rat in situ intestinal perfusion model, effect of CMF1 on absorption of OA; type: in vivo; conditions: CMF1 6.8 mg/mL vs OA alone (Figure 2)
Method: In view of the consistent effect of CMF1 on OA and OC, further confirmation was performed using rat in situ intestinal perfusion model as described previously. Perfusion concentrations were set at 6.8 mg/mL for CMF1. The flow rate of perfusate applied to the intestinal lumen was set at 0.3 mL/min. Samples obtained from the mesenteric vein were collected into the preweighted 2 mL centrifuge tubes (each containing 30 μL of 10 mg/mL saline solution of dichlorvos) at every 5 min. All collected samples were weighted and centrifuged at 13,000 rpm for 4 min immediately. The plasma samples were stored at −80°C refrigerator until further treated by SPE and analyzed by LC/MS/MS assay as described above.

[2] = Human crossover pharmacokinetic interaction study of WM (Tamiflu) alone or with CMF1; type: in vivo, human (Chinese male healthy volunteers); conditions: human; for half-life: read-out: T 1/2 (terminal half-life) (converted); for Tmax: read-out: T max
Method: Normal healthy Chinese male subjects aged 20–45 years were recruited in this study. […] The study was conducted using a single-center, randomized, open-labeled, multiple dose (5 days), two-treatment, two-period, two-sequence crossover design. […] Each subject underwent two treatment sessions (periods I and II), and each session consists of 5-day treatment (twice daily for day 1 to day 4, morning dose for day 5). The two treatment sessions were separated by a washout period of 2 weeks. 250 mL water was used for WM (Tamiflu capsule, 75 mg per dose) administration. […] Drinking water was not allowed from 1 h predose to 1 h postdose except that needed for drug dosing. […] All blood and urine collection was taken on day 5 of each treatment session. […] Blood samples were collected from a catheter, which was placed in the forearm vein before dosing. At the specified time, 5 mL of blood was drawn (except for 0 time and at 2 h which was 10 mL each for additional antiviral activity determination) and stored in vacuette lithium heparin tubes (Greiner Bio-One). […] Plasma samples were collected after centrifugation and then stored at −80°C until assay. Urine was also collected (and the volume was recorded) at pre-dose, 0–4, 4–8, and 8–12 h intervals. […] After mixing and centrifugation, the supernatant was loaded in prewashed Oasis MCX cartridge (1 cc, 30 mg, Waters) and the cartridge was rinsed subsequently with 1% formic acid, water, and methanol followed by vacuum dried for 20 min. The analytes were then eluted with 1 mL of 1% ammonia in methanol. The eluting solvent was dried by a vacuum concentrator and the residue was reconstituted with 200 μL of 0.1% formic acid : methanol (1 : 1 v/v) prior to HPLC/MS/MS analysis using an ABI 2000 Q-Trap triple quadrupole mass spectrometer (Applied Biosystems) coupled with PE-200 series micropumps and autosampler (Perkin-Elmer). […] In human study, trough concentration (C trough) was defined as the minimum concentration obtained and was obtained at 12 h post-dose. […] In human studies, the comparison of WM + CMF1 to WM alone treatments was evaluated using a 90% confidence intervals (90% CI) approach (USFDA guideline, Drug Interactions Studies, September 2006). […] The statistical model included terms describing the effects attributable to sequence, subject (nested in sequence), period, and treatment (formulation). […] Difference in the median T max between both treatments was evaluated using Wilcoxon signed-rank test. For comparison of the human antiviral activities, one-way analysis of variance in conjunction with post hoc Turkey's range test was performed.

[3] = geometric mean ratio of (WM + CMF1)/WM
[4] = male, in vivo, 75 mg, day 5, WM alone, n = 14, arithmetic mean ± SD
[5] = male, in vivo, day 5, WM + CMF1, n = 14, arithmetic mean ± SD

**Q.** With `CCC(CC)O[C@@H]1C=C(C(=O)O)C[C@H](N)[C@H]1NC(C)=O` [OC, oseltamivir carboxylate] as the compound, how does the IC50 (H3N2) read?
**A.** 0.2 to 0.6 nM

**Q.** What about the “accumulated amount in rat mesenteric blood in presence of CMF1” value [1] of the same compound?
**A.** decreased without statistical significance

**Q.** What about the “lowering of 12 h cumulative amount excreted in urine by co-administration of CMF1” value [2] of the same compound?
**A.** ~ 14%

**Q.** And the “12 h Cum. amt. in urine, geometric mean” value ([2]; WM + CMF1, n = 14)?
**A.** 61224.10 µg

**Q.** And the “12 h Cum. amt. in urine, geometric mean” value ([2]; WM alone, n = 14)?
**A.** 71215.61 µg

**Q.** What about the “time to reach peak maximum in plasma” value ([2]; approximate value) of the same compound?
**A.** 4 to 5 h

**Q.** What about the “12 h Cum. amt. in urine” value ([2]; day 5, WM + CMF1, n = 14, arithmetic mean ± SD) of the same compound?
**A.** 62087 ± 10741 µg

**Q.** And the “12 h Cum. amt. in urine” value ([2]; day 5, WM alone, n = 14, arithmetic mean ± SD)?
**A.** 72851 ± 15312 µg

**Q.** What about the “GM Ratio of 12 h Cum. amt. in urine” value [2, 3] of the same compound?
**A.** 85.97%

**Q.** And the “GM Ratio of AUC0–12 h” value [2, 3]?
**A.** 91.32%

**Q.** And the “GM Ratio of C max” value [2, 3]?
**A.** 91.32%

**Q.** And the “concentration of OC in plasma relative to the respective OA” value ([2]; oral WM)?
**A.** ~ 10 fold

**Q.** And the AUC(0-t) ([2]; male, in vivo, 75 mg, WM alone, n = 14, read-out: AUC0–12 h, geometric mean)?
**A.** 4450 ng·h/mL

**Q.** What about the Cmax ([2]; male, in vivo, 75 mg, WM alone, n = 14, read-out: C max, geometric mean) of the same compound?
**A.** 526 ng/mL

**Q.** And the CL renal ([2]; male, in vivo, 75 mg, approximate value, read-out: renal clearance (converted))?
**A.** ~267 mL/min

**Q.** What about the concentration at 12 h ([2]; male, in vivo, 75 mg, day 5, WM alone (Tamiflu 75 mg bid), n = 14, arithmetic mean ± SD, read-out: C trough (plasma concentration at 12 h postdose)) of the same compound?
**A.** 207 ± 67.7 ng/mL

**Q.** What about the AUC(0-t) ([2]; male, in vivo, 75 mg, day 5, WM alone, n = 14, arithmetic mean ± SD, read-out: AUC0–12 h) of the same compound?
**A.** 4580 ± 1160 ng·h/mL

**Q.** What about the Cmax ([2]; male, in vivo, 75 mg, day 5, WM alone, n = 14, arithmetic mean ± SD, read-out: C max) of the same compound?
**A.** 536 ± 102 ng/mL

**Q.** And the CL renal ([2]; male, in vivo, 75 mg, day 5, WM alone, n = 14, arithmetic mean ± SD, read-out: Renal clearance (converted))?
**A.** 272 mL/min

**Q.** What about the AUC(0-t) ([2]; male, in vivo, WM + CMF1, n = 14, read-out: AUC0–12 h, geometric mean) of the same compound?
**A.** 4070 ng·h/mL

**Q.** And the Cmax ([2]; male, in vivo, WM + CMF1, n = 14, read-out: C max, geometric mean)?
**A.** 481 ng/mL

**Q.** And the concentration at 12 h ([2]; male, in vivo, both WM and WM + CMF1 treatments, approximate value, read-out: mean C trough)?
**A.** ~200 ng/mL

**Q.** And the concentration at 12 h ([2]; male, in vivo, both WM and WM + CMF1 treatments, read-out: mean C trough, molar equivalent)?
**A.** ~704 nM

**Q.** And the concentration at 2 h ([2]; male, in vivo, both treatments (WM and WM + CMF1), read-out: 2 h post-dose plasma concentration)?
**A.** 410 to 436 ng/mL

**Q.** What about the concentration at 12 h ([2]; male, in vivo, day 5, WM + CMF1 (10 g per dose), n = 14, arithmetic mean ± SD, read-out: C trough (plasma concentration at 12 h postdose)) of the same compound?
**A.** 195 ± 51.2 ng/mL

**Q.** What about the AUC(0-t) ([2]; male, in vivo, day 5, WM + CMF1, n = 14, arithmetic mean ± SD, read-out: AUC0–12 h) of the same compound?
**A.** 4140 ± 783 ng·h/mL

**Q.** What about the Cmax ([2]; male, in vivo, day 5, WM + CMF1, n = 14, arithmetic mean ± SD, read-out: C max) of the same compound?
**A.** 487 ± 82.7 ng/mL

**Q.** And the CL renal ([2]; male, in vivo, day 5, WM + CMF1, n = 14, arithmetic mean ± SD, read-out: Renal clearance (converted))?
**A.** 257 mL/min

**Q.** And the half-life [2, 4]?
**A.** 310 ± 76.2 min

**Q.** What about the Tmax [2, 4] of the same compound?
**A.** 4.21 ± 0.97 h

**Q.** And the half-life [2, 5]?
**A.** 342 ± 81 min

**Q.** What about the Tmax [2, 5] of the same compound?
**A.** 3.5 ± 0.94 h

— article PMC3912631, “Bench to Bed Evidences for Pharmacokinetic and Pharmacodynamic Interactions Involving Oseltamivir and Chinese Medicine” (Evidence-based Complementary and Alternative Medicine : eCAM, 2014)
